# Assay results from PubChem BioAssay AID977613 (Broad Institute, 2014).
# Calls of active or inactive are those of the source. How the calls were made is not given here.
# Test system: Broad 7084-01 inhibitor HTS, set 2
# Experiment: single-concentration hits, screen 7084 set 2 (AID 977613);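 further: host cells are infected with parasite promastigotes that become internalized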
row,Compound,active concentration
1,O=C(C1CCOCC1)N1CC(=O)N2[C@@H](CO)[C@@H](c3ccc(C#CCc4ccccc4)cc3)[C@@H]2C1,> 10 µM (inactive)
2,O=C(C1CCCCC1)N1CC(=O)N2[C@H](CO)[C@@H](c3ccc(-c4ccccc4F)cc3)[C@@H]2C1,> 10 µM (inactive)
3,COc1ccc(NC(=O)N2CC(=O)N3[C@@H](CO)[C@H](c4ccc(Br)cc4)[C@@H]3C2)cc1,> 10 µM (inactive)
4,O=C(Nc1ccccc1F)N1CC(=O)N2[C@H](C1)[C@H](c1ccc(-c3cccnc3)cc1)[C@@H]2CO,> 10 µM (inactive)
5,CN1C(=O)c2cc(NC(=O)C3CCOCC3)ccc2OC[C@@H]2O[C@@H](CC(=O)NCCc3ccncc3)CC[C@H]21,> 10 µM (inactive)
6,COc1ccccc1C(=O)N1C[C@H]2[C@@H](c3ccccc31)[C@@H](CO)N2C(=O)Cc1cccnc1,> 10 µM (inactive)
7,CS(=O)(=O)N1C[C@@H](O)COC[C@@H]2O[C@H](CC(=O)NCc3ccc(-c4ccccc4)cc3)CC[C@H]21,> 10 µM (inactive)
8,C/C=C/c1ccc([C@@H]2[C@@H](CO)N3C(=O)CN(C(=O)c4ccncc4)C[C@H]23)cc1,> 10 µM (inactive)
9,CN1C(=O)c2cc(NC(=O)Cc3cccs3)ccc2OC[C@H]2O[C@H](CC(=O)N[C@@H]3CCN(Cc4ccccc4)C3)CC[C@@H]21,> 10 µM (inactive)
10,Cc1ccccc1S(=O)(=O)N1CCCCN2[C@H](CO)[C@@H](c3ccc(C#CCN(C)C)cc3)[C@H]2C1,> 10 µM (inactive)
11,O=C(Nc1cccc(F)c1)N1C[C@@H]2[C@H](c3ccccc31)[C@H](CO)N2C(=O)Cc1ccccn1,> 10 µM (inactive)
12,C/C=C/c1ccc([C@@H]2[C@H](CO)N3C(=O)CN(Cc4ccc(F)cc4)C[C@@H]23)cc1,> 10 µM (inactive)
13,COC(=O)C[C@H]1CC[C@@H]2[C@@H](COc3ccc(NS(=O)(=O)c4ccccc4Cl)cc3C(=O)N2C)O1,> 10 µM (inactive)
14,CCCN1[C@@H]2c3ccc(-c4cncnc4)c(=O)n3C[C@@H]2[C@@H](CO)[C@@H]1C(=O)OC,> 10 µM (inactive)
15,COc1ccc2c3c([nH]c2c1)[C@@H](CO)N(C(=O)Nc1ccc(F)cc1)CC31CN(Cc2cc(-c3ccccc3)on2)C1,> 10 µM (inactive)
16,COC(=O)c1ccc(CN2CC(=O)N3[C@H](CO)[C@@H](c4ccc(-c5cccnc5)cc4)[C@H]3C2)cc1,> 10 µM (inactive)
17,COc1ccc2c3c(n(C)c2c1)[C@@H](CO)N(C)CC31CN(CC2CC2)C1,> 10 µM (inactive)
18,CC(C)C#Cc1ccc([C@@H]2[C@H](CO)N3C(=O)CN(C(=O)c4ccc5c(c4)OCO5)C[C@@H]23)cc1,> 10 µM (inactive)
19,CC(=O)N1CCCCN2[C@H](CO)[C@H](c3ccc(-c4ccccc4)cc3)[C@H]2C1,> 10 µM (inactive)
20,O=C(C[C@H]1CC[C@H]2[C@@H](COC[C@@H](O)CN2CC2CCOCC2)O1)NCC1CCCCC1,> 10 µM (inactive)
21,COc1ccc2c3c(n(C)c2c1)[C@@H](CO)N(S(=O)(=O)c1ccc(C)cc1)CC31CN(C(=O)c2ccccn2)C1,> 10 µM (inactive)
22,COc1ccc(-c2ccc3c(c2)[C@@H]2[C@@H](CCN2C(=O)CN2CCOCC2)[C@@H](CO)N3)cc1,> 10 µM (inactive)
23,CCN1CC(=O)N2[C@H](CO)[C@@H](c3ccc(Br)cc3)[C@H]2C1,> 10 µM (inactive)

row,Compound,active concentration
1,C/C=C/c1ccc([C@@H]2[C@H](CO)N(C(=O)c3cnccn3)C23CN(C(C)=O)C3)cc1,> 10 µM (inactive)
2,O=S(=O)(c1ccccc1)N1C[C@@H]2[C@H](c3ccccc31)[C@H](CO)N2Cc1ccccn1,> 10 µM (inactive)
3,O=C(C[C@H]1CC[C@@H]2[C@H](COC[C@@H](O)CN2C(=O)c2ccncc2)O1)NCc1ccc(-c2ccccc2)cc1,> 10 µM (inactive)
4,COc1cccc(C#Cc2ccc([C@H]3[C@H](CO)N4C(=O)CN(C(=O)Cc5cccnc5)C[C@@H]34)cc2)c1,> 10 µM (inactive)
5,N#C[C@@H]1[C@@H](c2ccccc2C2=CCCCC2)[C@@H](CO)N1C(=O)c1cccc(F)c1,> 10 µM (inactive)
6,O=C(Nc1cc(F)ccc1F)N1CCCCN2[C@@H](CO)[C@@H](c3ccc(C4=CCCCC4)cc3)[C@@H]2C1,> 10 µM (inactive)
7,O=C(C[C@H]1CC[C@@H]2[C@H](COC[C@@H](O)CN2S(=O)(=O)c2cccc(F)c2)O1)Nc1ccc(-c2ccccc2)cc1,> 10 µM (inactive)
8,COc1ccc2c3c(n(C)c2c1)[C@H](CO)N(C(=O)Nc1ccc(F)cc1)CC31CN(C(=O)Cc2ccncc2)C1,> 10 µM (inactive)
9,CN(C)C(=O)c1cccc(-c2ccc([C@H]3[C@H](CO)N4C(=O)CN(C(=O)C5CCC5)C[C@@H]34)cc2)c1,> 10 µM (inactive)
10,COc1ccccc1-c1ccccc1[C@H]1[C@H](C#N)N(C(=O)CN(C)C)[C@H]1CO,> 10 µM (inactive)
11,CC(C)CC#Cc1ccc([C@H]2[C@H](CO)N3C(=O)CN(C(=O)c4ccccn4)C[C@@H]23)cc1,> 10 µM (inactive)
12,CC=Cc1ccc2n(c1=O)C[C@H]1[C@H](CO)[C@@H](C(=O)N[C@@H](C)c3ccccc3)N(C(=O)c3cnccn3)[C@@H]21 (mixture of isomers),> 10 µM (inactive)
13,O=C(c1cccnc1)N1C[C@H]2[C@@H](c3ccccc31)[C@@H](CO)N2C(=O)CN1CCOCC1,> 10 µM (inactive)
14,O=C(C[C@@H]1CC[C@@H]2[C@H](COC[C@H](O)CN2C(=O)c2ccc3c(c2)OCO3)O1)NC1CCC1,> 10 µM (inactive)
15,CN(C)C(=O)C[C@@H]1CC[C@@H]2[C@H](COC[C@H](O)CN2C(=O)C2CC2)O1,> 10 µM (inactive)
16,CN1C(=O)c2cc(NC(=O)c3cccc(F)c3)ccc2OC[C@H]2O[C@H](CC(=O)NCC3CCCCC3)CC[C@@H]21,> 10 µM (inactive)
17,CC(C)NC(=O)Nc1ccc2c(c1)C(=O)N(C)[C@H]1CC[C@H](CC(=O)NCc3ccc(F)cc3)O[C@H]1CO2,> 10 µM (inactive)
18,COc1ccc(C#Cc2ccc([C@@H]3[C@@H](CO)N4C(=O)CN(C(=O)c5ccc(F)cc5)C[C@@H]34)cc2)cc1,> 10 µM (inactive)
19,CN1C(=O)c2cc(NC(=O)c3ccc(F)c(F)c3)ccc2OC[C@H]2O[C@@H](CC(=O)N[C@@H]3CCN(Cc4ccccc4)C3)CC[C@H]21,> 10 µM (inactive)
20,Cc1ccc(-c2ccccc2[C@@H]2[C@H](C#N)N(C(=O)c3cccc(F)c3)[C@H]2CO)cc1,> 10 µM (inactive)
21,COc1ccc(C#Cc2ccc3c(c2)[C@H]2[C@H](CCN2C(=O)CN2CCOCC2)[C@H](CO)N3C)cc1,> 10 µM (inactive)
22,O=C(C[C@@H]1CC[C@H]2[C@@H](COC[C@H](O)CN2S(=O)(=O)c2ccccc2)O1)Nc1ccccc1,> 10 µM (inactive)
23,CCCNC(=O)N1[C@H](CO)[C@@H](c2ccccc2C2=CCCCC2)[C@@H]1C#N,> 10 µM (inactive)

row,Compound,active concentration
1,O=C(C[C@H]1CC[C@@H]2[C@H](COC[C@H](O)CN2Cc2ccc(Cl)cc2)O1)NCc1ccccc1Cl,> 10 µM (inactive)
2,O=C(Nc1cccc(Cl)c1)N1C[C@@H]2[C@H](c3ccccc31)[C@H](CO)N2CC1CCOCC1,> 10 µM (inactive)
3,COCC(=O)N1[C@@H]2c3ccc(/C=C/c4ccccc4)c(=O)n3C[C@H]1[C@H](CO)[C@H]2C(=O)N1CCOCC1,> 10 µM (inactive)
4,O=S(=O)(c1cccs1)N1CCCCN2[C@H](C1)[C@H](c1ccc(/C=C/c3ccccc3)cc1)[C@@H]2CO,> 10 µM (inactive)
5,CN(C)CC#Cc1ccc([C@H]2[C@H]3CN(C(=O)Nc4ccccc4F)CCCCN3[C@H]2CO)cc1,> 10 µM (inactive)
6,CC(C)NC(=O)N1CC2(C1)[C@H](c1ccccc1)[C@H](CO)N2CCC(F)(F)F,> 10 µM (inactive)
7,COc1cccc(NC(=O)N2C[C@@H](O)COC[C@H]3O[C@H](CC(=O)NC4CCC4)CC[C@@H]32)c1,> 10 µM (inactive)
8,COc1cccc(-c2ccc3c(c2)[C@H]2[C@H](CCN2S(=O)(=O)c2cn(C)cn2)[C@H](CO)N3)c1,> 10 µM (inactive)
9,CN1C(=O)c2cc(NC(=O)C3CCOCC3)ccc2OC[C@H]2O[C@@H](CC(=O)NCCc3ccncc3)CC[C@H]21,> 10 µM (inactive)
10,CC(C)(O)C#Cc1ccc([C@H]2[C@H](CO)N3CCCCN(S(C)(=O)=O)C[C@@H]23)cc1,> 10 µM (inactive)
11,COc1ccc2c3c([nH]c2c1)[C@H](CO)N(CC1CC1)CC31CN(C(=O)c2ccc(F)cc2)C1,> 10 µM (inactive)
12,O=C(C1CC1)N1CC2(C1)[C@H](c1ccccc1)[C@H](CO)N2Cc1nccs1,> 10 µM (inactive)
13,N#C[C@@H]1[C@@H](c2ccccc2-c2ccccc2F)[C@@H](CO)N1C(=O)C1CCC1,> 10 µM (inactive)
14,O=C(C1CCC1)N1CC2(C1)[C@H](c1ccccc1)[C@H](CO)N2C(=O)c1ccccn1,> 10 µM (inactive)
15,COc1ccc2c3c(n(C)c2c1)[C@@H](CO)N(C(=O)Nc1cccc(F)c1)CC31CN(Cc2nccs2)C1,> 10 µM (inactive)
16,COc1cccc(-c2ccc([C@H]3[C@H]4CNCC(=O)N4[C@H]3CO)cc2)c1,> 10 µM (inactive)
17,COc1ccccc1NC(=O)N1CC(=O)N2[C@H](CO)[C@@H](c3ccc(-c4cccc(C)c4)cc3)[C@@H]2C1,> 10 µM (inactive)
18,O=C(NC1CCCC1)N1CCCCN2[C@H](C1)[C@@H](c1ccc(-c3cccnc3)cc1)[C@@H]2CO,> 10 µM (inactive)
19,N#C[C@H]1[C@H](c2ccccc2-c2ccccc2F)[C@H](CO)N1C(=O)C1CCC1,> 10 µM (inactive)
20,O=C(C[C@@H]1CC[C@H]2[C@@H](COC[C@H](O)CN2CCC(F)(F)F)O1)NCC1CC1,> 10 µM (inactive)
21,CCCNC(=O)N1CC(=O)N2[C@H](CO)[C@H](c3ccc(-c4ccc(F)cc4)cc3)[C@H]2C1,> 10 µM (inactive)
22,O=C(C[C@@H]1CC[C@@H]2[C@H](COC[C@@H](O)CN2Cc2nccs2)O1)NCc1ccccc1,> 10 µM (inactive)
23,COc1ccccc1CNC(=O)C[C@@H]1CC[C@H]2[C@@H](COC[C@@H](O)CN2C(=O)Nc2ccccc2)O1,> 10 µM (inactive)
